Results as given in ChEMBL document CHEMBL4308860, “Nature-inspired development of unnatural meroterpenoids as the non-toxic anti-colon cancer agents” (Eur J Med Chem, 2018).
Calls of active or inactive are those of the source. The calls are words filed in the database; no cut-off is given here.

Tests used:
L132 = test: Antiproliferative activity against human L-132 cells up to 25 uM after 72 hrs by MTT assay; assay type: cell-based; details: l132, 72 h
HT-29 [1] = test: Antiproliferative activity against human HT-29 cells assessed as inhibition of cell proliferation after 72 hrs by MTT assay; assay type: functional, cell-based; details: for IC50: HT-29, 72 h
HT-29 [2] = test: Cytotoxicity against human HT-29 cells assessed as increase in cell death after 72 hrs by Propidium iodide staining-based flow cytometric analysis; assay type: functional
HT-29 [3] = test: Cell cycle arrest in human HT-29 cells assessed as accumulation at G2/M phase up to 10 uM after 48 hrs by propidium iodide/RNase staining based flow cytometric analysis; assay type: functional
HT-29 [4] = test: Cytotoxicity against human HT-29 cells assessed as cell death at 50 uM after 72 hrs by Propidium iodide staining-based flow cytometric analysis relative to control; assay type: functional
HT-29 [5] = test: Antiproliferative activity against human HT-29 cells assessed as inhibition of cell proliferation at 25 uM after 72 hrs by MTT assay; assay type: functional; details: HT-29, 72 h
HT-29 [6] = test: Down regulation of survivin level in human HT-29 cells up to 25 uM after 48 hrs by Western blot analysis; assay type: functional, cell-based
HT-29 [7] = test: Down regulation of COX-2 level in human HT-29 cells up to 25 uM after 48 hrs by Western blot analysis; assay type: functional, cell-based
HT-29 [8] = test: Cell cycle arrest in human HT-29 cells assessed as accumulation at S phase up to 10 uM after 48 hrs by propidium iodide/RNase staining based flow cytometric analysis; assay type: functional
HT-29 [9] = test: Induction of apoptosis in human HT-29 cells assessed as increase in apoptotic body formation up to 25 uM after 72 hrs by calcein-AM/ethidium homodimer-1 staining-based fluorescence microscopic analysis; assay type: functional, cell-based
HT-29 [10] = test: Cell cycle arrest in human HT-29 cells assessed as accumulation at G0/G1 phase up to 5 uM after 48 hrs by propidium iodide/RNase staining based flow cytometric analysis; assay type: functional
HT-29 [11] = test: Cell cycle arrest in human HT-29 cells assessed as accumulation at G2/M phase up to 15 uM after 48 hrs by propidium iodide/RNase staining based flow cytometric analysis; assay type: functional
HT-29 [12] = test: Cell cycle arrest in human HT-29 cells assessed as accumulation at S phase up to 5 uM after 48 hrs by propidium iodide/RNase staining based flow cytometric analysis; assay type: functional
HT-29 [13] = test: Cell cycle arrest in human HT-29 cells assessed as accumulation at S phase up to 7 uM after 48 hrs by propidium iodide/RNase staining based flow cytometric analysis; assay type: functional

**Q.** What does the source list for CC1(C)CC[C@@H]2c3ccc(O)cc3C[C@]3(C)CCC[C@@H]1[C@H]23?
**A.** Activity (L132): Non-Toxic; Activity (HT-29 [1]): Dose-dependent effect; IC50 (HT-29 [1]): 20.5 µM; Activity (HT-29 [2]): Dose-dependent effect; Activity (HT-29 [3]): Active; Activity (HT-29 [4]): >50%; inhibition at 25 µM (HT-29 [5]): 112%

**Q.** COc1ccc(C[C@]2(O)CCC[C@H]3C(C)(C)[C@@H](O)CC[C@@]32C)cc1 was tested. Which inhibition at 25 µM (HT-29 [5]) did it give?
**A.** -3.48%

**Q.** Which Activity (L132) does the source give for CC1(C)CC[C@@H]2c3cc(O)ccc3C[C@]3(C)CCC[C@@H]1[C@H]23 here?
**A.** Non-Toxic

**Q.** And the Activity (HT-29 [6])?
**A.** Active

**Q.** And the Activity (HT-29 [1])?
**A.** Dose-dependent effect

**Q.** What about the IC50 (HT-29 [1]) of the same compound?
**A.** 16 µM

**Q.** And the Activity (HT-29 [2])?
**A.** Dose-dependent effect

**Q.** What about the Activity (HT-29 [4]) of the same compound?
**A.** >50%

**Q.** And the inhibition at 25 µM (HT-29 [5])?
**A.** 114%

**Q.** What about the Activity (HT-29 [7]) of the same compound?
**A.** Active

**Q.** And the Activity (HT-29 [8])?
**A.** Active

**Q.** For CC1(C)CC[C@@H]2C3=C(C[C@]4(C)CCC[C@@H]1[C@H]24)C(=O)C=CC3=O, which Activity (L132) is on record?
**A.** Non-Toxic

**Q.** What about the Activity (HT-29 [6]) of the same compound?
**A.** Active

**Q.** And the Activity (HT-29 [1])?
**A.** Dose-dependent effect

**Q.** And the IC50 (HT-29 [1])?
**A.** 14.5 µM

**Q.** What about the Activity (HT-29 [2]) of the same compound?
**A.** Dose-dependent effect

**Q.** And the Activity (HT-29 [4])?
**A.** >50%

**Q.** What about the inhibition at 25 µM (HT-29 [5]) of the same compound?
**A.** 124%

**Q.** And the Activity (HT-29 [7])?
**A.** Active

**Q.** And the Activity (HT-29 [8])?
**A.** Active

**Q.** For CC(C)(C)c1ccc2c(c1)[C@H]1CCC(C)(C)[C@@H]3CCC[C@@](C)(C2)[C@@H]13, which inhibition at 25 µM (HT-29 [5]) is on record?
**A.** -1.89%

**Q.** Cc1ccc(C[C@]2(O)CCC[C@H]3C(C)(C)CCC[C@@]32C)cc1 was tested. Which inhibition at 25 µM (HT-29 [5]) did it give?
**A.** 13%

**Q.** Which inhibition at 25 µM (HT-29 [5]) does the source give for COc1ccc(CC2(O)CCC[C@@H]3CCCC[C@@H]32)cc1 (some centres undefined) here?
**A.** 0.56%

**Q.** For CC1(C)CC[C@@H]2c3cccc(O)c3C[C@]3(C)CCC[C@@H]1[C@H]23, which inhibition at 25 µM (HT-29 [5]) is on record?
**A.** 39.1%

**Q.** Which results are given for C[C@@H]1CC[C@@H]2C3=C(C[C@]4(C)CCC[C@@H]1[C@H]24)C(=O)C=CC3=O?
**A.** Activity (HT-29 [9]): Active; Activity (L132): Non-Toxic; Activity (HT-29 [6]): Active; Activity (HT-29 [1]): Dose-dependent effect; IC50 (HT-29 [1]): 8 µM; Activity (HT-29 [2]): Dose-dependent effect; Activity (HT-29 [4]): >50%; Activity (HT-29 [10]): Active; inhibition at 25 µM (HT-29 [5]): 71.8%; Activity (HT-29 [7]): Active

**Q.** Which inhibition at 25 µM (HT-29 [5]) does the source give for CC1(C)CC[C@@H]2c3ccccc3C[C@]3(C)CCC[C@@H]1[C@H]23 here?
**A.** 22.4%

**Q.** What does the source list for CC1(C)CC[C@@H]2c3cc(O)ccc3C[C@@]3(C)[C@@H]2[C@H]1CCC3(C)C?
**A.** Activity (HT-29 [9]): Active; Activity (L132): Non-Toxic; Activity (HT-29 [6]): Active; Activity (HT-29 [1]): Dose-dependent effect; IC50 (HT-29 [1]): 15 µM; Activity (HT-29 [2]): Dose-dependent effect; Activity (HT-29 [11]): Active; Activity (HT-29 [4]): >50%; inhibition at 25 µM (HT-29 [5]): 97.5%; Activity (HT-29 [7]): Active

**Q.** Which inhibition at 25 µM (HT-29 [5]) does the source give for C[C@@H]1CC[C@H]2C(C)(C)[C@@H](O)CC[C@]2(C)C1(O)Cc1ccccc1O (some centres undefined) here?
**A.** -1.89%

**Q.** Which results are given for O=c1[nH]cc(F)c(=O)[nH]1 [FLUOROURACIL]?
**A.** Activity (L132): Non-Toxic; Activity (HT-29 [12]): Active; Activity (HT-29 [1]): Dose-dependent effect; IC50 (HT-29 [1]): 6.5 µM; Activity (HT-29 [2]): inactive

**Q.** For CC1(C)CC[C@@H]2c3cc(O)c(O)cc3C[C@]3(C)CCC[C@@H]1[C@H]23, which Activity (HT-29 [9]) is on record?
**A.** Active

**Q.** What about the Activity (L132) of the same compound?
**A.** Non-Toxic

**Q.** And the Activity (HT-29 [6])?
**A.** Active

**Q.** What about the Activity (HT-29 [1]) of the same compound?
**A.** Dose-dependent effect

**Q.** What about the IC50 (HT-29 [1]) of the same compound?
**A.** 7.5 µM

**Q.** And the Activity (HT-29 [2])?
**A.** Dose-dependent effect

**Q.** And the Activity (HT-29 [13])?
**A.** Active

**Q.** What about the inhibition at 25 µM (HT-29 [5]) of the same compound?
**A.** 142%

**Q.** What about the Activity (HT-29 [7]) of the same compound?
**A.** Active

**Q.** CC1(C)CC[C@@H]2c3ccc(O)c(O)c3C[C@]3(C)CCC[C@@H]1[C@H]23 was tested. Which Activity (L132) did it give?
**A.** Non-Toxic

**Q.** What about the Activity (HT-29 [6]) of the same compound?
**A.** Active

**Q.** What about the Activity (HT-29 [1]) of the same compound?
**A.** Dose-dependent effect

**Q.** And the IC50 (HT-29 [1])?
**A.** 16.5 µM

**Q.** And the Activity (HT-29 [2])?
**A.** Dose-dependent effect

**Q.** What about the inhibition at 25 µM (HT-29 [5]) of the same compound?
**A.** 118%

**Q.** What about the Activity (HT-29 [7]) of the same compound?
**A.** Active

**Q.** And the Activity (HT-29 [8])?
**A.** Active
